Key:
Experiment in all cases: Test B pre-/postemergence plant response
Assay type in all cases: in vivo
[1] = tested on: Italian ryegrass (Lolium multiflorum)
Method in brief: (§1)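 Seeds sown in loam–sand blend were treated preemergence, and plants at 2–18 cm (1- to 4-leaf stage) in peat-based medium were treated postemergence; compounds were formulated in non-phytotoxic solvent with surfactant. After 13–15 days in greenhouse, response was visually rated against controls, 0 (no effect) to 100 (complete control).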

[2] = tested on: Surinam grass (Brachiaria decumbens)
Method in brief: as §1

[3] = tested on: bermudagrass (Cynodon dactylon)
Method in brief: as §1

[4] = tested on: blackgrass (Alopecurus myosuroides)
Method in brief: as §1

corn (Zea mays) = tested on: corn (Zea mays)
Method in brief: as §1

[5] = tested on: downy bromegrass (Bromus tectorum)
Method in brief: as §1

[6] = tested on: giant foxtail (Setaria faberii)
Method in brief: as §1

[7] = tested on: goosegrass (Eleusine indica)
Method in brief: as §1

[8] = tested on: green foxtail (Setaria viridis)
Method in brief: as §1

[9] = tested on: johnsongrass (Sorghum halepense)
Method in brief: as §1

kochia (Kochia scoparia) = tested on: kochia (Kochia scoparia)
Method in brief: as §1

[10] = tested on: lambsquarters (Chenopodium album)
Method in brief: as §1

[11] = tested on: large crabgrass (Digitaria sanguinalis)
Method in brief: as §1

[12] = tested on: ragweed (common ragweed, Ambrosia elatior)
Method in brief: as §1

[13] = tested on: velvetleaf (Abutilon theophrasti)
Method in brief: as §1

[14] = tested on: woolly cupgrass (Eriochloa villosa)
Method in brief: as §1

[15] = tested on: yellow nutsedge (Cyperus esculentus)
Method in brief: as §1

[16] = Postemergence, 31 g ai/ha, 0 to 100 scale (0 no effect, 100 complete control)
[17] = Postemergence, 125 g ai/ha, scale 0 (no effect) to 100 (complete control), 13 to 15 days
[18] = Postemergence, 250 g ai/ha, scale 0 to 100 (0 no effect, 100 complete control), 13 to 15 days
[19] = Postemergence, 62 g ai/ha, scale 0 to 100 (0 no effect, 100 complete control)
[20] = Preemergence, 31 g ai/ha, scale 0 to 100 (0 no effect, 100 complete control)
[21] = Preemergence, 62 g ai/ha, scale 0 to 100, 0 no effect, 100 complete control
[22] = Preemergence, 125 g ai/ha, scale 0 to 100, 0 no effect, 100 complete control
[23] = Preemergence, 250 g ai/ha, 0 to 100 scale

## COCCCn1c(-c2cc(F)cc(F)c2)ncc(C(=O)C2=C(O)C3CCC(C3)C2=O)c1=O (stereo not shown) [Compound 244]
[1]; [16]
  Plant response rating, Ryegrass, Italian: 35
[1]; [17]
  Plant response rating, Ryegrass, Italian: 80
[1]; [18]
  Plant response rating, Ryegrass, Italian: 95
[1]; [19]
  Plant response rating, Ryegrass, Italian: 60
[1]; [20]
  Plant response rating, Ryegrass, Italian: 0
[1]; [21]
  Plant response rating, Ryegrass, Italian: 0
[1]; [22]
  Plant response rating, Ryegrass, Italian: 5
[1]; [23]
  Ryegrass, Italian plant response rating: 45
[2]; [16]
  Plant response rating, Surinam Grass: 90
[2]; [17]
  Plant response rating, Surinam Grass: 100
[2]; [18]
  Plant response rating, Surinam Grass: 100
[2]; [19]
  Plant response rating, Surinam Grass: 95
[2]; [20]
  Plant response rating, Surinam Grass: 75
[2]; [21]
  Plant response rating, Surinam Grass: 100
[2]; [22]
  Plant response rating, Surinam Grass: 100
[2]; [23]
  Surinam Grass plant response rating: 100
[3]; [16]
  Plant response rating, Bermudagrass: 80
[3]; [17]
  Plant response rating, Bermudagrass: 100
[3]; [18]
  Plant response rating, Bermudagrass: 100
[3]; [19]
  Plant response rating, Bermudagrass: 100
[3]; [20]
  Plant response rating, Bermudagrass: 100
[3]; [21]
  Plant response rating, Bermudagrass: 100
[3]; [22]
  Plant response rating, Bermudagrass: 100
[3]; Preemergence, 250 g ai/ha, 0 to 100 scale, 0 no effect, 100 complete control
  Bermudagrass plant response rating: 100
[4]; [16]
  Plant response rating, Blackgrass: 50
[4]; [17]
  Plant response rating, Blackgrass: 65
[4]; [18]
  Plant response rating, Blackgrass: 85
[4]; [19]
  Plant response rating, Blackgrass: 60
[4]; [20]
  Plant response rating, Blackgrass: 35
[4]; [21]
  Plant response rating, Blackgrass: 35
[4]; [22]
  Plant response rating, Blackgrass: 60
[4]; [23]
  Blackgrass plant response rating: 70
Corn (Zea mays); [16]
  Plant response rating, Corn: 85
Corn (Zea mays); [17]
  Plant response rating, Corn: 95
Corn (Zea mays); [18]
  Plant response rating, Corn: 100
Corn (Zea mays); [19]
  Plant response rating, Corn: 90
Corn (Zea mays); [20]
  Plant response rating, Corn: 5
Corn (Zea mays); [21]
  Plant response rating, Corn: 25
Corn (Zea mays); [22]
  Plant response rating, Corn: 60
Corn (Zea mays); [23]
  Corn plant response rating: 85
[5]; [16]
  Plant response rating, Bromegrass, Downy: 40
[5]; [17]
  Plant response rating, Bromegrass, Downy: 75
[5]; [18]
  Plant response rating, Bromegrass, Downy: 80
[5]; [19]
  Plant response rating, Bromegrass, Downy: 50
[5]; [20]
  Plant response rating, Bromegrass, Downy: 0
[5]; [21]
  Plant response rating, Bromegrass, Downy: 0
[5]; [22]
  Plant response rating, Bromegrass, Downy: 5
[5]; [23]
  Bromegrass, Downy plant response rating: 30
[6]; [16]
  Plant response rating, Foxtail, Giant: 95
[6]; [17]
  Plant response rating, Foxtail, Giant: 95
[6]; [18]
  Plant response rating, Foxtail, Giant: 100
[6]; [19]
  Plant response rating, Foxtail, Giant: 95
[6]; [20]
  Plant response rating, Foxtail, Giant: 60
[6]; [21]
  Plant response rating, Foxtail, Giant: 80
[6]; [22]
  Plant response rating, Foxtail, Giant: 100
[6]; [23]
  Foxtail, Giant plant response rating: 100
[7]; [16]
  Plant response rating, Goosegrass: 85
[7]; [17]
  Plant response rating, Goosegrass: 98
[7]; [18]
  Plant response rating, Goosegrass: 98
[7]; [19]
  Plant response rating, Goosegrass: 95
[7]; [20]
  Plant response rating, Goosegrass: 98
[7]; [21]
  Plant response rating, Goosegrass: 100
[7]; [22]
  Plant response rating, Goosegrass: 100
[7]; [23]
  Goosegrass plant response rating: 100
[8]; [16]
  Plant response rating, Foxtail, Green: 85
[8]; [17]
  Plant response rating, Foxtail, Green: 98
[8]; [18]
  Plant response rating, Foxtail, Green: 100
[8]; [19]
  Plant response rating, Foxtail, Green: 98
[8]; [20]
  Plant response rating, Foxtail, Green: 0
[8]; [21]
  Plant response rating, Foxtail, Green: 45
[8]; [22]
  Plant response rating, Foxtail, Green: 90
[8]; [23]
  Foxtail, Green plant response rating: 90
[9]; [16]
  Plant response rating, Johnsongrass: 85
[9]; [17]
  Plant response rating, Johnsongrass: 100
[9]; [18]
  Plant response rating, Johnsongrass: 100
[9]; [19]
  Plant response rating, Johnsongrass: 95
[9]; [20]
  Plant response rating, Johnsongrass: 70
[9]; [21]
  Plant response rating, Johnsongrass: 85
[9]; [22]
  Plant response rating, Johnsongrass: 100
[9]; [23]
  Johnsongrass plant response rating: 100
Kochia (Kochia scoparia); [16]
  Plant response rating, Kochia: 85
Kochia (Kochia scoparia); [17]
  Plant response rating, Kochia: 100
Kochia (Kochia scoparia); [18]
  Plant response rating, Kochia: 100
Kochia (Kochia scoparia); [19]
  Plant response rating, Kochia: 90
Kochia (Kochia scoparia); [20]
  Plant response rating, Kochia: 85
Kochia (Kochia scoparia); [21]
  Plant response rating, Kochia: 90
Kochia (Kochia scoparia); [22]
  Plant response rating, Kochia: 95
Kochia (Kochia scoparia); [23]
  Kochia plant response rating: 100
[10]; [16]
  Plant response rating, Lambsquarters: 100
[10]; [17]
  Plant response rating, Lambsquarters: 100
[10]; [18]
  Plant response rating, Lambsquarters: 100
[10]; [19]
  Plant response rating, Lambsquarters: 100
[10]; [20]
  Plant response rating, Lambsquarters: 100
[10]; [21]
  Plant response rating, Lambsquarters: 100
[10]; [22]
  Plant response rating, Lambsquarters: 100
[10]; [23]
  Lambsquarters plant response rating: 100
[11]; [16]
  Plant response rating, Crabgrass, Large: 80
[11]; [17]
  Plant response rating, Crabgrass, Large: 100
[11]; [18]
  Plant response rating, Crabgrass, Large: 100
[11]; [19]
  Plant response rating, Crabgrass, Large: 100
[11]; [20]
  Plant response rating, Crabgrass, Large: 98
[11]; [21]
  Plant response rating, Crabgrass, Large: 100
[11]; [22]
  Plant response rating, Crabgrass, Large: 100
[11]; [23]
  Crabgrass, Large plant response rating: 100
[12]; [16]
  Plant response rating, Ragweed: 98
[12]; [17]
  Plant response rating, Ragweed: 98
[12]; [18]
  Plant response rating, Ragweed: 100
[12]; [19]
  Plant response rating, Ragweed: 98
[12]; [20]
  Plant response rating, Ragweed: 70
[12]; [21]
  Plant response rating, Ragweed: 95
[12]; [22]
  Plant response rating, Ragweed: 100
[12]; [23]
  Ragweed plant response rating: 100
[13]; [16]
  Plant response rating, Velvetleaf: 100
[13]; [17]
  Plant response rating, Velvetleaf: 100
[13]; [18]
  Plant response rating, Velvetleaf: 100
[13]; [19]
  Plant response rating, Velvetleaf: 100
[13]; [20]
  Plant response rating, Velvetleaf: 100
[13]; [21]
  Plant response rating, Velvetleaf: 100
[13]; [22]
  Plant response rating, Velvetleaf: 100
[13]; [23]
  Velvetleaf plant response rating: 100
[14]; [16]
  Plant response rating, Cupgrass, Woolly: 100
[14]; [17]
  Plant response rating, Cupgrass, Woolly: 100
[14]; [18]
  Plant response rating, Cupgrass, Woolly: 100
[14]; [19]
  Plant response rating, Cupgrass, Woolly: 100
[14]; [20]
  Plant response rating, Cupgrass, Woolly: 45
[14]; [21]
  Plant response rating, Cupgrass, Woolly: 55
[14]; [22]
  Plant response rating, Cupgrass, Woolly: 95
[14]; [23]
  Cupgrass, Woolly plant response rating: 100
[15]; [16]
  Plant response rating, Nutsedge, Yellow: 45
[15]; [17]
  Plant response rating, Nutsedge, Yellow: 65
[15]; [18]
  Plant response rating, Nutsedge, Yellow: 75
[15]; [19]
  Plant response rating, Nutsedge, Yellow: 50
[15]; [20]
  Plant response rating, Nutsedge, Yellow: 20
[15]; [21]
  Plant response rating, Nutsedge, Yellow: 60
[15]; [22]
  Plant response rating, Nutsedge, Yellow: 80
[15]; [23]
  Nutsedge, Yellow plant response rating: 95
